The target of test [1] is T1, recombinant Drosophila melanogaster ryanodine receptors (expressed in Sf9 cells) (Drosophila melanogaster, UniProt Q24498).
T1 construct: expressed in transfected cells
It counts as cell-based. The settings on record: receptor expressed in Sf9 cells. Here is the method:
The Spodoptera frugiperda cell line Sf9 used for transfection studies, was maintained in Sf-900 II SFM medium (Invitrogen Life Technologies™, Carlsbad, Calif.) in T-75 flasks incubated at 27° C. It is understood that those skilled in the art might choose alternative cell types such as the Spodoptera frugiperda cell line Sf21 or the Drosophila cell line S2. For the purpose of general handling and propagation, cells were suspended through scraping or agitation and a volume of cell suspension was added to each well of a poly-L-lysine coated 96-well, glass-bottom plate so as to provide 70-80% confluence. Cells were maintained in an incubator at 27° C. until testing.
SF900-II media was used to bring the final volume in the dish to 2 ml and the cells were incubated at 27 degrees C. for 21 h. Following the incubation the media was aspirated from the dish and replaced with 1 ml of SF900-II media pre-warmed to 27 degrees C.
The transient transfection was carried out following an InsectSelect BSD System manual (Invitrogen Life Technologies™, Carlsbad, Calif.). […] The transfection was accomplished by adding the transfection solution drop-wise to the dish and incubating 4 h at room temperature with gentle rocking. […]
(§1) Several drops of a suspension of recombinant Spodoptera frugiperda cell line, Sf9, transiently expressing insect ryanodine receptors were placed on a poly-L-lysine-coated coverslip and allowed to attach. Cells were then rinsed in physiological saline having the following composition (mM): NaCl 130; KCl 5.4; MgCl2 1.2; CaCl2 1.0; NaHCO3 4.2; NaH2P04 7.3; Glucose 10; Sucrose 63; MES 20; pH 6.3. Cells were then bathed in physiological saline containing the calcium sensitive fluoroprobe, Fura-2 AM (2 μM), and Pluronic F127 (0.002%) for 30 min. Cells were rinsed in standard physiological saline for at least 15 min prior to testing. Testing was conducted in standard physiological saline, as the cell lines are devoid of functional voltage-gated calcium channels.
Cell-attached coverslips were placed in a sealed chamber with physiological saline continuously perfused across the cells using a peristaltic pump. Test compounds solubilized in physiological saline were applied by switching the perfusate source.
(§2) For studies involving the stable recombinant Spodoptera frugiperda cell line, Sf9, (other cell lines could also be used such as Sf21, S2, etc) expressing an insect ryanodine receptor from Drosophila melanogaster, or Heliothis virescens (alternatively receptors from other species such as Myzus persicae, Peregrinus maidis, Aphis gossypii, etc) were grown in T75 (or other appropriate sized) flasks in supplemented Grace's insect medium. Cells were maintained in an incubator at 22° C. until testing. Cells were suspension-loaded with the calcium sensitive fluoroprobe, Fura-2 AM (1-2 μM) and Pluronic F127 (0.002%) in culture medium for 30 minutes under agitation. Cells were then centrifuged and the pellet resuspended in physiological saline having the following composition (mM): NaCl 130; KCl 5.4; MgCl2 1.2; CaCl2 1.0; NaHCO3 4.2; NaH2P04 7.3; Glucose 10; Sucrose 63; MES 20; pH 6.3 at approximately 150,000-200,000 cells per well (96-well plate). After a 30 minute equilibration period the cell plate was tested using a Molecular Devices' FlexStation™ system with dual wavelength excitation (340 and 380 nm) and fluorescence emission measured at 510 nm. Test and control samples were added using integrated fluidics and the intracellular calcium monitored over a 2 minute period.

The test system of test [2] is recombinant Heliothis virescens ryanodine receptor (expressed in Sf9 cells). The experiment in a line: Calcium release assay, Sf9 cells transiently or stably expressing Heliothis virescens ryanodine receptor (Fura-2). It is filed as cell-based. As to conditions: for calcium response: Sf9 stably expressing H. virescens ryanodine receptor, FIG. 5. The method, then:
SF9 cells were grown at 27 degrees C. in a Corning 125 ml polycarbonate Erlenmeyer flask to a density of 3.1 million cells per ml in SF900-II serum free media (Gibco catalog no. 10902-088, Invitrogen™, Carlsbad, Calif.). One million cells were transferred to one well of a Corning 6-well, flat bottom cell culture dish (Corning Inc., Acton, Mass., catalog no. 3516). SF900-II media was used to bring the final volume in the dish to 2 ml and the cells were incubated at 27 degrees C. for 21 h. Following the incubation the media was aspirated from the dish and replaced with 1 ml of SF900-II media pre-warmed to 27 degrees C.
In the case of the vectors containing the Cre recognition elements, the transfection solution was mixed in a 1.5 ml microfuge tube by combining 5 ug of pHE7 plasmid, 5 ug of pMLS104 Cre plasmid and 0.5 ug of lacZ reporter plasmid, 15 ug of cellfectin reagent (Invitrogen cat. #10362-010) and SF900-II serum free media (Gibco catalog #10902-088, Invitrogen™, Carlsbad, Calif.) in a total volume of 500 ul. The solution was incubated for 1 hour at room temperature just prior to the transfection.
The transfection was accomplished by adding the transfection solution drop-wise to the dish and incubating 4 h at room temperature with gentle rocking. After the 4 h incubation the media was replaced with 2 ml of SF900-II media pre-warmed to 27 degrees C. and the cells were incubated 3 days at 27 degrees C.
as §1, with “Testing was conducted in standard physiological saline, as the cell lines are devoid of functional voltage-gated calcium channels.” left out
For studies involving the stable recombinant Spodoptera frugiperda cell line, Sf9, (other cell lines could also be used such as Sf21, S2, etc) expressing an insect ryanodine receptor from Drosophila melanogaster, or Heliothis virescens (alternatively receptors from other species such as Myzus persicae, Peregrinus maidis, Aphis gossypii, etc) were grown in T75 (or other appropriate sized) flasks in supplemented Grace's insect medium. […] After a 30 minute equilibration period the cell plate was tested using a Molecular Devices' FlexStation™ system with dual wavelength excitation (340 and 380 nm) and fluorescence emission measured at 510 nm. […]

The target of test [3] is native cockroach ryanodine receptors (roach femoral muscle membranes) (Periplaneta americana, UniProt A0ABQ8T696). Briefly: Radioligand displacement ([3H]-GN analog Cpd 1) on roach femoral muscle membranes. It counts as binding. The method, then:
Binding to Roach Femoral Muscle Membranes:
Assays were carried out in triplicate.

Test [4] concerns control cells without DNA / wild-type Sf9 cells. The experiment in a line: Calcium response in control Sf9 cells (without DNA, lipid only, non-transfected, wild type). It counts as cell-based, Spodoptera frugiperda.
Source text: as §1
Imaging studies were conducted using a Nikon Diaphot microscope with a 40× oil immersion objective (NA 1.3) Image acquisition and processing was performed using the MetaFluor™ imaging system from Universal Imaging Corporation (West Chester, Pa.) Calcium calibration was carried out using the Grynkiewicz equation with a dissociation constant (Kd) of 145 nM for Fura-2 (Grynkiewicz et al., 1985). Cell-attached coverslips were placed in a sealed chamber with physiological saline continuously perfused across the cells using a peristaltic pump. Test compounds solubilized in physiological saline were applied by switching the perfusate source.
as §2

Sequence of native cockroach ryanodine receptors (roach femoral muscle membranes) (A0ABQ8T696 entry or part of it): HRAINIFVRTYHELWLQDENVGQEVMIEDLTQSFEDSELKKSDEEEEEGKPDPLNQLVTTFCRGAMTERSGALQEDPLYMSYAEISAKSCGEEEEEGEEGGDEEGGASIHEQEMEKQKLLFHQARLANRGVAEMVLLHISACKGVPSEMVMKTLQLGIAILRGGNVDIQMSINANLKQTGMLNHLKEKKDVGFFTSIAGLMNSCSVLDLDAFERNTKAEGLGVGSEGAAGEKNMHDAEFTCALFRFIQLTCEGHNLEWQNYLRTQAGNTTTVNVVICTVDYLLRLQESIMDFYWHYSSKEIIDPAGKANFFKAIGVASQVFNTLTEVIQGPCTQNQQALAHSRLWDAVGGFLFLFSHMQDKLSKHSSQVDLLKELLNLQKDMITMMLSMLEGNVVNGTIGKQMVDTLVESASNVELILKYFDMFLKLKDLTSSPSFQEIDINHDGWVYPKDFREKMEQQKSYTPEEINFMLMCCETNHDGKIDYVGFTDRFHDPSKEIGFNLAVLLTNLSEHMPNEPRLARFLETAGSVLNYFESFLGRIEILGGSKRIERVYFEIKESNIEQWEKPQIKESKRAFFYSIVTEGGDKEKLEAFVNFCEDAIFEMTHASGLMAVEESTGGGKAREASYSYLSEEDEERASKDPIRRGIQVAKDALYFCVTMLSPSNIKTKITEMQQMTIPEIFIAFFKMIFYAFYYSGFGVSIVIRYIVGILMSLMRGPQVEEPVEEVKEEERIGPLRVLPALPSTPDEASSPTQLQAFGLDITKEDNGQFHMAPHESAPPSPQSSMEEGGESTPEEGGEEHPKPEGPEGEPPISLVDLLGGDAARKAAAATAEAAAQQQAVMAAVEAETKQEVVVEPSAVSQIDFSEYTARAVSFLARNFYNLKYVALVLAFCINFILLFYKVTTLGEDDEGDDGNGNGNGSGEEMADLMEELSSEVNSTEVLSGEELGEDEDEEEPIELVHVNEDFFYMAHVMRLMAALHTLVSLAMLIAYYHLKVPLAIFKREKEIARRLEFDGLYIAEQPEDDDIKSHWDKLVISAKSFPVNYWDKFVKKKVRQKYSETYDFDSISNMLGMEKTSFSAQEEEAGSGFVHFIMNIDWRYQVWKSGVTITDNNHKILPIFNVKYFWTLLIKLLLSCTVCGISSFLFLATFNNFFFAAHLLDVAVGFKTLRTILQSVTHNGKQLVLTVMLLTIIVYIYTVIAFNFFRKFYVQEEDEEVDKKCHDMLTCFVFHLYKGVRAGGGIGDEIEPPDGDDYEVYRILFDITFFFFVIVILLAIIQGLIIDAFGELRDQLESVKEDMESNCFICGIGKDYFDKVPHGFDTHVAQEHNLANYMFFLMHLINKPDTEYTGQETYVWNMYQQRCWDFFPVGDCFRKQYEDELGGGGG

In the case of `CNC(=O)c1cc(Cl)cc(C)c1NC(=O)c1cc(Br)nn1-c1ncccc1Cl` [Cpd 14], in test [1], the “Calcium Release Threshold (nM) D. melanogaster” value was below 300 nM. For the same molecule, the calcium response result in test [2] (Compound 14 1 μM) was “calcium responses elicited”. In addition, the IC50 in test [3] (displacement of [3H]-Cpd 1, roach muscle membranes, 60 min at 32° C., read-out: Displacement IC50 (nM) P. americana) is below 300 nM.
Take `Cn1c(=O)c2c(ncn2C)n(C)c1=O` [Caffeine, reference compound]: in test [2] (caffeine 10 mM), the calcium response result is “calcium responses elicited”. For the same molecule, the “cytosolic [Ca2+] response” value in test [2] (caffeine 10 mM, Sf9 transiently expressing H. virescens ryanodine receptor, 72 hr post-transfection, FIG. 4) was “increase in cytosolic [Ca^2+]”. Besides, the “Radioligand Displacement (P. americana)” value in test [3] (Table 6, result in words) is on record as “Inactive”. In addition, in test [4] (caffeine 10 mM), the “calcium response in control cells without DNA” value is given as “No significant calcium responses”. Also, in test [4] (wild-type Sf9 cells (Sf9-WT), FlexStation, FIG. 6), the “caffeine dose response, calcium mobilization” value is “insensitive”.

For the origin of these results see US7655395B2, “Isolation and use of ryanodine receptors” (E.I. du Pont de Nemours and Company, priority 2002, dated 2010).
